{"source": "patent US20030055073A1", "about": "“Remedies for sjoegren's syndrome” (priority 2000, published 2003)", "key": {"[1]": {"assay": "Toxicity: maximum tolerated dose with an intravenous injection", "details": "mouse, in vivo, mice", "experimental": "The toxicity of the compound represented by formula (I), (IA) or (Ia) of the present invention is very low and it was confirmed that it is sufficiently safe as a medicament. For example, a maximum tolerated dose with an intravenous injection using the compound represented by formula (Ia) of the present invention is 30 mg/kg in mice."}, "[2]": {"tested_on": "NFS/sld female mice (thymic gland extracted on the 3rd day after birth; Sjögren's syndrome model)", "assay": "Laesio score by tissue findings of target organs in model mouse of Sjögren's syndrome (standard of White and Casarett)", "type": "in vivo", "details": "5 μg/kg/day s.c., 3 to 8 week age", "experimental": "(§1) NFS/sld female mice of which thymic gland have been extracted on the 3rd day after the birth have Sjögren's syndrome after 4 weeks (Journal of Immunology, 153, 2769 (1994)). The compound represented by formula (la) of the present invention was subcutaneously administered once per day (5 μg/kg/day) to the mice from 3 week age to 8 week age which were immediately before histologic grand disorder was observed. The experiment was carried out for 3 non-administered groups (pathologic control) and 5 administered groups. In the 8th week, a stimulating agent (0.5 mg/kg pilocarpine hydrochloride) was intraperitoneally administered, and an amount of salivary gland liquid and an amount of lacrimal gland liquid were measured and evaluation was carried out by tissue findings.\nThe score is improved at a factor of ⅓ to ½ in each gland. The score was obtained based on the standard of White and Casarett (Journal of Immunology, 112, 178 (1974))."}, "[3]": {"tested_on": "NFS/sld female mice (thymic gland extracted on the 3rd day after birth; Sjögren's syndrome model)", "assay": "Gland liquid secretion after pilocarpine stimulation in model mouse of naturally crisis Sjögren's syndrome", "type": "in vivo", "details": "5 μg/kg/day s.c. once per day from 3 to 8 week age; 8th week, 0.5 mg/kg pilocarpine hydrochloride i.p.; measured for 35 minutes at 5 minute intervals", "experimental": "as §1\nTables 1 and 2 show amounts of gland liquids (salivary gland secretory liquid and lacrimal gland secretory liquid) as cumulative rates (AUC) which measured for 35 minutes at the interval of 5 minutes after the administration of the stimulating agent."}}}
{"smiles": "C[C@H]1CC(=N)N[C@@H]2[C@H](Cl)[C@@H]21", "note": "[formula (Ia), (+)-trans-3-imino-5-methyl-7-chloro-2-azabicyclo[4.1.0]heptane]", "values": [{"measurement": "MTD", "setting": "[1]", "value": 30, "unit": "mg/kg"}, {"measurement": "laesio score improved at a factor of (versus non-administered group)", "setting": "[2]; each gland, score by standard of White and Casarett", "value": "⅓ to ½"}, {"measurement": "inhibition effect on laesio for each target organ", "setting": "[2]; submaxillary salivary gland, sublingual gland, parotid gland, lacrimal gland, FIG. 1", "value": "significant inhibition effects on laesio"}, {"measurement": "Lacrimal gland secretory liquid after administration of stimulating agent AUC0-35 minutes", "setting": "[3]", "value": "0.798 mm/animal weight (g)"}, {"measurement": "Salivary gland secretory liquid after administration of stimulating agent AUC0-35 minutes", "setting": "[3]", "value": "15.8 μl/animal weight (g)"}]}
